In ChEMBL document CHEMBL1201862, “PubChem BioAssay data set” (2004):
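Results reflect a 48-hour exposure of cells in 96-well plates to compound at five concentrations. Abbreviation: GI50, concentration required for 50% inhibition of growth.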 Activity calls are given as the source filed them. No stated cut-off is given here; in the data, active = GI50 up to about 1.1 µM and inactive = higher.

Assays:
Assay in all cases: NCI tumour cell line growth inhibition, 48 h
[1] = system: UACC-62
[2] = system: DU-145
[3] = system: LOX IMVI
[4] = system: A498
[5] = system: SNB-75
[6] = system: A549
[7] = system: CAKI-1
[8] = system: UO-31
[9] = system: RXF 393
[10] = system: Hs-578T
[11] = system: HL-60
[12] = system: SK-MEL-5
[13] = system: NCI-H226
[14] = system: MDA-MB-231
[15] = system: HCT-116
[16] = system: CCRF-CEM
[17] = system: MCF7
[18] = system: HT-29
[19] = system: TK-10
[20] = system: K562
[21] = system: SK-MEL-28
[22] = system: SF-539
[23] = system: SW-620
[24] = system: SNB-19
[25] = system: SF-295
[26] = system: KM12
[27] = system: OVCAR-5
[28] = system: COLO 205
[29] = system: M14
[30] = system: OVCAR-3
[31] = system: SR
[32] = system: HCT-15
[33] = system: OVCAR-4
[34] = system: OVCAR-8
[35] = system: NCI-H522
[36] = system: UACC-257
[37] = system: SK-MEL-2
[38] = system: HOP-92
[39] = system: EKVX
[40] = system: T47D
[41] = system: 786-0
[42] = system: MDA-MB-435
[43] = system: NCI-H23
[44] = system: RPMI-8226
[45] = system: SN12C
[46] = system: IGROV-1
[47] = system: ACHN
[48] = system: PC-3
[49] = system: HOP-62
[50] = system: MOLT-4
[51] = system: U-251
[52] = system: NCI/ADR-RES
[53] = system: Malme-3M
[54] = system: SF-268
[55] = system: NCI-H460
[56] = system: HCC 2998
[57] = system: MDA-N
[58] = system: SK-OV-3

With `CCOC1=NC(C(F)(F)F)(C(F)(F)F)N=C(N2CCCCC2)O1` the GI50 [1] was > 100 µM (inactive), the GI50 [2] was > 100 µM (inactive) and the GI50 [3] was > 100 µM (inactive). The GI50 [4] was > 100 µM (inactive), the GI50 [5] was > 100 µM (inactive) and the GI50 [6] was > 100 µM (inactive). The GI50 [7] was > 100 µM (inactive), the GI50 [8] was > 100 µM (inactive) and the GI50 [9] was > 100 µM (inactive). The GI50 [10] was > 100 µM (inactive), the GI50 [11] was 29.3 µM (inactive) and the GI50 [12] was > 100 µM (inactive). The GI50 [13] was > 100 µM (inactive), the GI50 [14] was > 100 µM (inactive) and the GI50 [15] was > 100 µM (inactive). For the same compound, the GI50 [16] was > 100 µM (inactive), the GI50 [17] was > 100 µM (inactive) and the GI50 [18] was > 100 µM (inactive). For the same compound, the GI50 [19] was > 100 µM (inactive), the GI50 [20] was > 100 µM (inactive) and the GI50 [21] was > 100 µM (inactive). The GI50 [22] was > 100 µM (inactive), the GI50 [23] was > 100 µM (inactive) and the GI50 [24] was > 100 µM (inactive). The GI50 [25] was > 100 µM (inactive), the GI50 [26] was > 100 µM (inactive) and the GI50 [27] was > 100 µM (inactive). For the same compound, the GI50 [28] was > 100 µM (inactive), the GI50 [29] was > 100 µM (inactive) and the GI50 [30] was > 100 µM (inactive). For the same compound, the GI50 [31] was 59 µM (inactive), the GI50 [32] was > 100 µM and the GI50 [33] was > 100 µM (inactive). The GI50 [34] was > 100 µM (inactive), the GI50 [35] was > 100 µM (inactive) and the GI50 [36] was > 100 µM (inactive). For the same compound, the GI50 [37] was > 100 µM (inactive), the GI50 [38] was > 100 µM (inactive) and the GI50 [39] was > 100 µM (inactive). For the same compound, the GI50 [40] was > 100 µM (inactive), the GI50 [41] was > 100 µM (inactive) and the GI50 [42] was > 100 µM (inactive). The GI50 [43] was > 100 µM (inactive), the GI50 [44] was > 100 µM (inactive) and the GI50 [45] was > 100 µM (inactive). For the same compound, the GI50 [46] was > 100 µM (inactive), the GI50 [47] was > 100 µM (inactive) and the GI50 [48] was > 100 µM (inactive). The GI50 [49] was > 100 µM (inactive), the GI50 [50] was > 100 µM (inactive) and the GI50 [51] was > 100 µM (inactive). For the same compound, the GI50 [52] was > 100 µM (inactive), the GI50 [53] was > 100 µM (inactive) and the GI50 [54] was > 100 µM (inactive). For the same compound, the GI50 [55] was > 100 µM (inactive).
In the case of `CC(C)=CCC1=C(O)C(=O)c2ccccc2C1=O`, the GI50 [56] is reported as > 100 µM (inactive), the GI50 [13] is reported as > 100 µM (inactive) and the GI50 [39] is reported as > 100 µM (inactive).
In the case of `N#Cc1ccc(/N=C(/NCC(=O)O)Nc2cccc3ccccc23)cc1`, the GI50 [1] is reported as > 10 µM (inactive), the GI50 [2] is reported as > 10 µM (inactive) and the GI50 [5] is reported as > 10 µM (inactive). The GI50 [6] was > 10 µM (inactive), the GI50 [7] was > 10 µM (inactive) and the GI50 [9] was > 10 µM (inactive). For the same compound, the GI50 [11] was > 10 µM (inactive), the GI50 [56] was > 10 µM (inactive) and the GI50 [12] was > 10 µM (inactive). The GI50 [14] was > 10 µM (inactive), the GI50 [16] was > 10 µM (inactive) and the GI50 [17] was > 10 µM (inactive). The GI50 [18] was > 10 µM (inactive), the GI50 [19] was > 10 µM (inactive) and the GI50 [20] was > 10 µM (inactive). The GI50 [21] was > 10 µM (inactive), the GI50 [23] was > 10 µM (inactive) and the GI50 [25] was > 10 µM (inactive). For the same compound, the GI50 [26] was > 10 µM (inactive), the GI50 [28] was > 10 µM (inactive) and the GI50 [29] was > 10 µM (inactive). For the same compound, the GI50 [31] was > 10 µM (inactive), the GI50 [32] was > 10 µM and the GI50 [34] was > 10 µM (inactive). For the same compound, the GI50 [36] was > 10 µM (inactive), the GI50 [57] was > 10 µM (inactive) and the GI50 [39] was > 10 µM (inactive). For the same compound, the GI50 [40] was > 10 µM (inactive), the GI50 [41] was > 10 µM (inactive) and the GI50 [43] was > 10 µM (inactive). For the same compound, the GI50 [44] was > 10 µM (inactive), the GI50 [45] was > 10 µM (inactive) and the GI50 [46] was > 10 µM (inactive). For the same compound, the GI50 [48] was > 10 µM (inactive), the GI50 [49] was > 10 µM (inactive) and the GI50 [50] was > 10 µM (inactive). The GI50 [53] was > 10 µM (inactive), the GI50 [54] was > 10 µM (inactive) and the GI50 [58] was > 10 µM (inactive).
